Measurements published in ChEMBL document CHEMBL4610038, “The synthesis of trifluoromethylated N-nitroaryl-2-amino-1,3-dichloropropane derivatives and their evaluation as potential anti-cancer agents” (Bioorg Med Chem Lett, 2020).

Columns and labels:
HCT-116 [1] = assay: Cytotoxicity against human HCT116 cells assessed as cell viability at 100 uM relative to control; format: functional; conditions: read-out: Activity
A549 [2] = assay: Cytotoxicity against human A549 cells assessed as reduction in cell viability; format: functional, cell-based
[3] = Cytotoxicity against human MCF10A cells assessed as cell viability at 100 uM relative to control; format: cell-based, MCF-10A; conditions: read-out: Activity
SW1990 [4] = assay: Cytotoxicity against human SW1990 cells assessed as reduction in cell viability; format: functional, cell-based
NCI-H1299 [5] = assay: Cytotoxicity against human H1299 cells assessed as cell viability at 100 uM relative to control; format: functional; conditions: read-out: Activity
SK-BR-3 [6] = assay: Cytotoxicity against human SKBR3 cells assessed as reduction in cell viability; format: functional, cell-based
[7] = Cytotoxicity against human HK1 cells assessed as cell viability at 100 uM relative to control; format: functional; conditions: HK-1, read-out: Activity
[8] = Cytotoxicity against human HK1 cells assessed as reduction in cell viability; format: functional, cell-based; conditions: HK-1
HT-29 [9] = assay: Cytotoxicity against human HT-29 cells assessed as cell viability at 100 uM relative to control; format: functional; conditions: read-out: Activity
SUNE1 [10] = assay: Cytotoxicity against human SUNE1 cells assessed as reduction in cell viability; format: functional, cell-based
SK-BR-3 [11] = assay: Cytotoxicity against human SKBR3 cells assessed as cell viability at 100 uM relative to control; format: functional; conditions: read-out: Activity
MDA-MB-468 [12] = assay: Cytotoxicity against human MDA-MB-468 cells assessed as reduction in cell viability; format: functional, cell-based
SH-SY5Y [13] = assay: Cytotoxicity against human SH-SY5Y cells assessed as reduction in cell viability; format: functional, cell-based
BXPC-3 [14] = assay: Cytotoxicity against human BxPC3 cells assessed as reduction in cell viability; format: functional, cell-based
HT-29 [15] = assay: Cytotoxicity against human HT-29 cells assessed as reduction in cell viability; format: functional, cell-based
MCF-10A = assay: Cytotoxicity against human MCF10A cells assessed as reduction in cell viability; format: cell-based
MDA-MB-231 [16] = assay: Cytotoxicity against human MDA-MB-231 cells assessed as cell viability at 100 uM relative to control; format: functional; conditions: read-out: Activity
SH-SY5Y [17] = assay: Cytotoxicity against human SH-SY5Y cells assessed as cell viability at 100 uM relative to control; format: functional; conditions: read-out: Activity
SUNE1 [18] = assay: Cytotoxicity against human SUNE1 cells assessed as cell viability at 100 uM relative to control; format: functional; conditions: read-out: Activity
[19] = Cytotoxicity against human MRC5 cells assessed as cell viability at 100 uM relative to control; format: cell-based; conditions: read-out: Activity
SW1990 [20] = assay: Cytotoxicity against human SW1990 cells assessed as cell viability at 100 uM relative to control; format: functional; conditions: read-out: Activity
CNE [21] = assay: Cytotoxicity against human CNE1 cells assessed as cell viability at 100 uM relative to control; format: functional; conditions: read-out: Activity
MRC5 = assay: Cytotoxicity against human MRC5 cells assessed as reduction in cell viability; format: cell-based
BXPC-3 [22] = assay: Cytotoxicity against human BxPC3 cells assessed as cell viability at 100 uM relative to control; format: functional; conditions: read-out: Activity
HCT-116 [23] = assay: Cytotoxicity against human HCT116 cells assessed as reduction in cell viability; format: functional, cell-based
T47D [24] = assay: Cytotoxicity against human T47D cells assessed as cell viability at 100 uM relative to control; format: functional; conditions: read-out: Activity
Caco-2 [25] = assay: Cytotoxicity against human Caco2 cells assessed as reduction in cell viability; format: functional, cell-based
ASPC1 [26] = assay: Cytotoxicity against human AsPC1 cells assessed as cell viability at 100 uM relative to control; format: functional; conditions: read-out: Activity
SW48 [27] = assay: Cytotoxicity against human SW48 cells assessed as reduction in cell viability; format: functional, cell-based
MCF7 [28] = assay: Cytotoxicity against human MCF7 cells assessed as cell viability at 100 uM relative to control; format: functional; conditions: read-out: Activity
MCF7 [29] = assay: Cytotoxicity against human MCF7 cells assessed as reduction in cell viability; format: functional, cell-based
A549 [30] = assay: Cytotoxicity against human A549 cells assessed as cell viability at 100 uM relative to control; format: functional; conditions: read-out: Activity
Caco-2 [31] = assay: Cytotoxicity against human Caco2 cells assessed as cell viability at 100 uM relative to control; format: functional; conditions: read-out: Activity
T47D [32] = assay: Cytotoxicity against human T47D cells assessed as reduction in cell viability; format: functional, cell-based
MDA-MB-468 [33] = assay: Cytotoxicity against human MDA-MB-468 cells assessed as cell viability at 100 uM relative to control; format: functional; conditions: read-out: Activity
CNE [34] = assay: Cytotoxicity against human CNE1 cells assessed as reduction in cell viability; format: functional, cell-based
ASPC1 [35] = assay: Cytotoxicity against human AsPC1 cells assessed as reduction in cell viability; format: functional, cell-based
SW48 [36] = assay: Cytotoxicity against human SW48 cells assessed as cell viability at 100 uM relative to control; format: functional; conditions: read-out: Activity
MDA-MB-231 [37] = assay: Cytotoxicity against human MDA-MB-231 cells assessed as reduction in cell viability; format: functional, cell-based
NCI-H1299 [38] = assay: Cytotoxicity against human H1299 cells assessed as reduction in cell viability; format: functional, cell-based

| SMILES | viability at 100 µM (HCT-116 [1]) [%] | IC50 (A549 [2]) [µM] | viability at 100 µM [3] [%] | IC50 (SW1990 [4]) [µM] | viability at 100 µM (NCI-H1299 [5]) [%] | IC50 (SK-BR-3 [6]) [µM] | viability at 100 µM [7] [%] | IC50 [8] [µM] | viability at 100 µM (HT-29 [9]) [%] | IC50 (SUNE1 [10]) [µM] | viability at 100 µM (SK-BR-3 [11]) [%] | IC50 (MDA-MB-468 [12]) [µM] | IC50 (SH-SY5Y [13]) [µM] | IC50 (BXPC-3 [14]) [µM] | IC50 (HT-29 [15]) [µM] | IC50 (MCF-10A) [µM] | viability at 100 µM (MDA-MB-231 [16]) [%] | viability at 100 µM (SH-SY5Y [17]) [%] | viability at 100 µM (SUNE1 [18]) [%] | viability at 100 µM [19] [%] | other results |
| --- | --- | --- | --- | --- | --- | --- | --- | --- | --- | --- | --- | --- | --- | --- | --- | --- | --- | --- | --- | --- | --- |
| O=[N+]([O-])c1ccc(NC(CCl)CCl)c(C(F)(F)F)c1 | 24.5 | 57.7 | 47.5 | 33.3 | 38.1 | > 100 | 61.4 | > 100 | 45.3 | 55.1 | 55.6 | 52.1 | 33.7 | 52.1 | 92.1 | 81 | 31.8 | 21.6 | 38.6 | 22.2 | viability at 100 µM (SW1990 [20]): 28.6%; viability at 100 µM (CNE [21]): 12.4%; IC50 (MRC5): 31 µM; viability at 100 µM (BXPC-3 [22]): 23.2%; IC50 (HCT-116 [23]): 33.1 µM; viability at 100 µM (T47D [24]): 24.3%; IC50 (Caco-2 [25]): 10.1 µM; viability at 100 µM (ASPC1 [26]): 40.2%; IC50 (SW48 [27]): 33.4 µM; viability at 100 µM (MCF7 [28]): 10.5%; IC50 (MCF7 [29]): 12.1 µM; viability at 100 µM (A549 [30]): 37.1%; viability at 100 µM (Caco-2 [31]): 9.5%; IC50 (T47D [32]): 34.7 µM; viability at 100 µM (MDA-MB-468 [33]): 20.4%; IC50 (CNE [34]): 15.3 µM; IC50 (ASPC1 [35]): 85.1 µM; viability at 100 µM (SW48 [36]): 26.5%; IC50 (MDA-MB-231 [37]): 42.4 µM; IC50 (NCI-H1299 [38]): 49.1 µM |
| O=[N+]([O-])c1ccc(NC(CO)CO)c(C(F)(F)F)c1 | 84.9 | > 100 | 88.8 | > 100 | 93.1 | > 100 | 90.4 | > 100 | 84.2 | > 100 | 75.2 | > 100 | > 100 | > 100 | > 100 | > 100 | 93.1 | 74.7 | 52.4 | 74.9 | viability at 100 µM (SW1990 [20]): 72.4%; viability at 100 µM (CNE [21]): 82.5%; IC50 (MRC5): > 100 µM; viability at 100 µM (BXPC-3 [22]): 109%; IC50 (HCT-116 [23]): > 100 µM; viability at 100 µM (T47D [24]): 59.1%; IC50 (Caco-2 [25]): > 100 µM; viability at 100 µM (ASPC1 [26]): 84.7%; IC50 (SW48 [27]): > 100 µM; viability at 100 µM (MCF7 [28]): 45.7%; IC50 (MCF7 [29]): 88.3 µM; viability at 100 µM (A549 [30]): 99.6%; viability at 100 µM (Caco-2 [31]): 101%; IC50 (T47D [32]): > 100 µM; viability at 100 µM (MDA-MB-468 [33]): 93.2%; IC50 (CNE [34]): > 100 µM; IC50 (ASPC1 [35]): > 100 µM; viability at 100 µM (SW48 [36]): 61.8%; IC50 (MDA-MB-231 [37]): > 100 µM; IC50 (NCI-H1299 [38]): > 100 µM |
| O=[N+]([O-])c1ccc(NC(CCl)CCl)cc1C(F)(F)F | 45 | 70.4 | 59.7 | 55.8 | 43.7 | > 100 | 59.7 | > 100 | 38.4 | 93.1 | 52.7 | > 100 | 56.4 | > 100 | 63.1 | > 100 | 57.4 | 30.6 | 44.9 | 22.1 | viability at 100 µM (SW1990 [20]): 36.7%; viability at 100 µM (CNE [21]): 32.6%; IC50 (MRC5): 33.9 µM; viability at 100 µM (BXPC-3 [22]): 56.5%; IC50 (HCT-116 [23]): 83.8 µM; viability at 100 µM (T47D [24]): 33.2%; IC50 (Caco-2 [25]): 37.1 µM; viability at 100 µM (ASPC1 [26]): 58.7%; IC50 (SW48 [27]): 43.4 µM; viability at 100 µM (MCF7 [28]): 20.5%; IC50 (MCF7 [29]): 33.1 µM; viability at 100 µM (A549 [30]): 27.8%; viability at 100 µM (Caco-2 [31]): 20.9%; IC50 (T47D [32]): 64.1 µM; viability at 100 µM (MDA-MB-468 [33]): 58.6%; IC50 (CNE [34]): 33.2 µM; IC50 (ASPC1 [35]): > 100 µM; viability at 100 µM (SW48 [36]): 29.1%; IC50 (MDA-MB-231 [37]): > 100 µM; IC50 (NCI-H1299 [38]): > 100 µM |
